The structures appear in SMILES notation.

The test deals with T1, ERR1 (also known as ERR-α or ERR-1) (Homo sapiens, UniProt P11474).
T1 sequence (P11474 193-421 limits assumed): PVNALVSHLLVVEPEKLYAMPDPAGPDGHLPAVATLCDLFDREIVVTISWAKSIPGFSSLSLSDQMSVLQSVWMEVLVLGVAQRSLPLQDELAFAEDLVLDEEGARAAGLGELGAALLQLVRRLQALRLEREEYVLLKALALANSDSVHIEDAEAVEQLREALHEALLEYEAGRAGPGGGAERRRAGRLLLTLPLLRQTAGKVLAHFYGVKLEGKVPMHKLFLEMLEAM
Put plainly: TR-FRET assay (disruption of co-activator peptide binding to ERR1 LBD). It is filed as biochemical. To be noted: 6 nM 6His-ERR1LBD, 6 nM GST-SRC-2 peptide; average of 3 independent experiments. An outline of the steps:
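His-tagged ERR1 ligand-binding domain and GST-labelled SRC-2 peptide, each 6 nM, equilibrated at 25° C for 4-18 h in Tris pH 8/Hepes/KCl/DTT/delipidated BSA buffer. Compound-induced loss of co-activator binding read as Eu cryptate→XL665 energy transfer; values from hyperbolic curve fits averaged over 3 independent runs.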
A general note: Time-resolved FRET reads energy transfer from a long-lived donor to a nearby acceptor.
By EC50 is commonly meant the concentration needed to bring the measured effect to its halfway point. Take `CN(C)CCCN1C(=O)S/C(=C\c2ccc3c(ccn3Cc3ccc(C(F)(F)F)cc3C(F)(F)F)c2)C1=O` [Compound 239, (5Z)-5-[(1-{[2,4-Bis(trifluoromethyl)phenyl]methyl}-1H-indol-5-yl)methylidene]-3-[3-(dimethylamino)-propyl]-1,3-thiazolidine-2,4-dione]: the concentration giving a half-maximal response (EC50) is 100 nM. Next, `COC(=O)[C@@H]1C[C@@H](N2C(=O)S/C(=C\c3ccc4c(cnn4Cc4ccc(Cl)cc4C(F)(F)F)c3)C2=O)CN1` [Compound 180, Methyl (4R)-4-[(5Z)-5-({1-[4-chloro-2-(trifluoromethyl)benzyl]-1H-indazol-5-yl}methylidene)-2,4-dioxo-1,3-thiazolidin-3-yl]-L-prolinate]: 32 nM. `NS(=O)(=O)NCCN1C(=O)S/C(=C\c2ccc3c(cnn3Cc3ccc(Cl)cc3C(F)(F)F)c2)C1=O` [Compound 50, N-{2-[(5Z)-5-({1-[4-Chloro-2-(trifluoromethyl)benzyl]-1H-indazol-5-yl}methylidene)-2,4-dioxo-1,3-thiazolidin-3-yl]ethyl}sulfamide]: the midpoint of the response, the EC50, lay at 40 nM.

`CS(=O)(=O)NN1C(=O)S/C(=C\c2ccc3c(cnn3Cc3ccc(C(F)(F)F)cc3C(F)(F)F)c2)C1=O` [Compound 360, N-[(5Z)-5-({1-[2,4-Bis(trifluoromethyl)benzyl]-1H-indazol-5-yl}methylidene)-2,4-dioxo-1,3-thiazolidin-3-yl]methanesulfonamide]: the response was half-maximal at 26 nM (EC50). Next, `CC(C)N1C[C@@H](F)[C@H](N2C(=O)S/C(=C\c3ccc4c(cnn4Cc4ccc(Cl)cc4C(F)(F)F)c3)C2=O)C1` (relative stereo) [Compound 321, (5Z)-5-({1-[4-Chloro-2-(trifluoromethyl)benzyl]-1H-indazol-5-yl}methylidene)-3-[trans-4-fluoro-1-(1-methylethyl)pyrrolidin-3-yl]-1,3-thiazolidine-2,4-dione]: 43 nM.

On to `O=C1S/C(=C\c2ccc3c(cnn3Cc3ccc(Cl)cc3C(F)(F)F)c2)C(=O)N1Cc1ncon1` [Compound 401, (5Z)-5-({1-[4-Chloro-2-(trifluoromethyl)benzyl]-1H-indazol-5-yl}methylidene)-3-(1,2,4-oxadiazol-3-ylmethyl)-1,3-thiazolidine-2,4-dione], for which the concentration giving a half-maximal response (EC50) came out at 36 nM. The figure for `O=C1S/C(=C\c2ccc3c(cnn3Cc3ccc(Cl)cc3C(F)(F)F)c2)C(=O)N1CCN1CCCNCC1` [Compound 104, (5Z)-5-({1-[4-Chloro-2-(trifluoromethyl)benzyl]-1H-indazol-5-yl}methylidene)-3-[2-(1,4-diazepan-1-yl)ethyl]-1,3-thiazolidine-2,4-dione] is 112 nM; for `O=C1S/C(=C\c2ccc3c(cnn3Cc3ccc(Cl)cc3C(F)(F)F)c2)C(=O)N1[C@@H]1CNCC[C@@H]1F` (relative stereo) [Compound 199, (5Z)-5-({1-[4-Chloro-2-(trifluoromethyl)benzyl]-1H-indazol-5-yl}methylidene)-3-(cis-4-fluoropiperidin-3-yl)-1,3-thiazolidine-2,4-dione] it is 15 nM; for `O=C1S/C(=C\c2ccc3c(c2)nnn3Cc2ccc(Cl)cc2C(F)(F)F)C(=O)N1C[C@H]1COCCN1` [Compound 267, (5Z)-5-({1-[4-Chloro-2-(trifluoromethyl)benzyl]-1H-benzotriazol-5-yl}methylidene)-3-[(3S)-morpholin-3-ylmethyl]-1,3-thiazolidine-2,4-dione] it is 11 nM.

With `N[C@H](CN1C(=O)S/C(=C\c2ccc3c(cnn3Cc3ccc(Cl)cc3C(F)(F)F)c2)C1=O)c1ccccc1` [Compound 161, (5Z)-3-[(2S)-2-Amino-2-phenylethyl]-5-({1-[4-chloro-2-(trifluoromethyl)benzyl]-1H-indazol-5-yl}methylidene)-1,3-thiazolidine-2,4-dione], a half-maximal effect (EC50) was put at 73 nM. Take `CN1CCCC(N2C(=O)S/C(=C\c3ccc4c(cnn4Cc4ccc(Cl)cc4C(F)(F)F)c3)C2=O)C1` (centres unmarked) [Compound 136, (5Z)-5-({1-[4-Chloro-2-(trifluoromethyl)benzyl]-1H-indazol-5-yl}methylidene)-3-(1-methylpiperidin-3-yl)-1,3-thiazolidine-2,4-dione]: a half-maximal response (EC50) required 35 nM. The figure for `O=C(CN1C(=O)S/C(=C\c2ccc3c(cnn3Cc3ccc(Cl)cc3C(F)(F)F)c2)C1=O)N1CCN[C@@H](CO)C1` [Compound 57, (5Z)-5-({1-[4-Chloro-2-(trifluoromethyl)benzyl]-1H-indazol-5-yl}methylidene)-3-{2-[(3R)-3-(hydroxymethyl)piperazin-1-yl]-2-oxoethyl}-1,3-thiazolidine-2,4-dione] is 59 nM; for `CN(C)S(=O)(=O)NC(=O)CN1C(=O)S/C(=C\c2ccc3c(cnn3Cc3ccc(C(F)(F)F)cc3C(F)(F)F)c2)C1=O` [Compound 88, 2-[(5Z)-5-({1-[2,4-Bis(trifluoromethyl)benzyl]-1H-indazol-5-yl}methylidene)-2,4-dioxo-1,3-thiazolidin-3-yl]-N-(dimethylsulfamoyl)acetamide] it is 134 nM. The molecule `O=C1S/C(=C\c2ccc3c(cnn3Cc3ccc(Cl)cc3C(F)(F)F)c2)C(=O)N1C1CCNCC1` [Compound 113, (5Z)-5-({1-[4-Chloro-2-(trifluoromethyl)benzyl]-1H-indazol-5-yl}methylidene)-3-piperidin-4-yl-1,3-thiazolidine-2,4-dione] gave an EC50 of 16 nM.

`O=C1S/C(=C\c2ccc3c(c2)nnn3Cc2ccc(Cl)cc2C(F)(F)F)C(=O)N1O` [Compound 290, (5Z)-5-({1-[4-Chloro-2-(trifluoromethyl)benzyl]-1H-benzotriazol-5-yl}methylidene)-3-hydroxy-1,3-thiazolidine-2,4-dione] yielded an EC50 of 29 nM. The molecule `NC(CN1C(=O)S/C(=C\c2ccc3c(cnn3Cc3ccc(Cl)cc3C(F)(F)F)c2)C1=O)C(F)(F)F` (centres unmarked) [Compound 169, (5Z)-3-(2-Amino-3,3,3-trifluoropropyl)-5-({1-[4-chloro-2-(trifluoromethyl)benzyl]-1H-indazol-5-yl}methylidene)-1,3-thiazolidine-2,4-dione] showed an EC50 of 32 nM. `O=C(O)c1ccccc1CN1C(=O)S/C(=C\c2ccc3c(cnn3Cc3ccc(Cl)cc3C(F)(F)F)c2)C1=O` [Compound 379, 2-{[(5Z)-5-({1-[4-Chloro-2-(trifluoromethyl)benzyl]-1H-indazol-5-yl}methylidene)-2,4-dioxo-1,3-thiazolidin-3-yl]methyl}benzoic acid] displayed an EC50 of 21 nM. Take `O=C1S/C(=C\c2ccc3c(cnn3Cc3ccc(Cl)cc3C(F)(F)F)c2)C(=O)N1Cc1cncs1` [Compound 94, (5Z)-5-({1-[4-Chloro-2-(trifluoromethyl)benzyl]-1H-indazol-5-yl}methylidene)-3-(1,3-thiazol-5-ylmethyl)-1,3-thiazolidine-2,4-dione]: the EC50 was ≥ 10000 nM. `O=C1S/C(=C\c2ccc3c(cnn3Cc3ccc(Cl)cc3C(F)(F)F)c2)C(=O)N1Cc1cscn1` [Compound 93]: the EC50 stood at 14 nM. Next, `CS(=O)(=O)NN1C(=O)S/C(=C\c2ccc3c(c2)c(I)nn3Cc2ccc(Cl)cc2C(F)(F)F)C1=O` [Compound 367, N-[(5Z)-5-({1-[4-Chloro-2-(trifluoromethyl)benzyl]-3-iodo-1H-indazol-5-yl}methylidene)-2,4-dioxo-1,3-thiazolidin-3-yl]methanesulfonamide]: 4 nM; `O=C1S/C(=C\c2ccc3c(cnn3Cc3ccc(C(F)(F)F)cc3C(F)(F)F)c2)C(=O)N1CCn1cncn1` [Compound 66, (5Z)-5-({1-[2,4-Bis(trifluoromethyl)benzyl]-1H-indazol-5-yl}methylidene)-3-[2-(1H-1,2,4-triazol-1-yl)ethyl]-1,3-thiazolidine-2,4-dione]: 16 nM. The figure for `O=C1S/C(=C\c2ccc3c(cnn3Cc3ccc(Cl)cc3C(F)(F)F)c2)C(=O)N1CCNS(=O)(=O)C(F)(F)F` [Compound 55, N-{2-[(5Z)-5-({1-[4-Chloro-2-(trifluoromethyl)benzyl]-1H-indazol-5-yl}methylidene)-2,4-dioxo-1,3-thiazolidin-3-yl]ethyl}-1,1,1-trifluoromethanesulfonamide] is 101 nM. With `O=C1S/C(=C\c2ccc3c(cnn3Cc3ccc(Cl)cc3C(F)(F)F)c2)C(=O)N1C1CNC1` [Compound 102, (5Z)-3-Azetidin-3-yl-5-({1-[4-chloro-2-(trifluoromethyl)benzyl]-1H-indazol-5-yl}methylidene)-1,3-thiazolidine-2,4-dione], a half-maximal response (EC50) required 37 nM. `CN1CCC(N2C(=O)S/C(=C\c3ccc4c(cnn4Cc4ccc(Cl)cc4C(F)(F)F)c3)C2=O)CC1` [Compound 135, (5Z)-5-({1-[4-Chloro-2-(trifluoromethyl)benzyl]-1H-indazol-5-yl}methylidene)-3-(1-methylpiperidin-4-yl)-1,3-thiazolidine-2,4-dione] had an EC50 of 19 nM.

As for `CCN1CCC(F)(CN2C(=O)S/C(=C\c3ccc4c(cnn4Cc4ccc(Cl)cc4C(F)(F)F)c3)C2=O)CC1` [Compound 306, (5Z)-5-({1-[4-Chloro-2-(trifluoromethyl)benzyl]-1H-indazol-5-yl}methylidene)-3-[(1-ethyl-4-fluoropiperidin-4-yl)methyl]-1,3-thiazolidine-2,4-dione], the midpoint of the response, the EC50, lay at 71 nM. `O=C1OCCC1N1C(=O)S/C(=C\c2ccc3c(cnn3Cc3ccc(C(F)(F)F)cc3C(F)(F)F)c2)C1=O` (centres unmarked) [Compound 65, (5Z)-5-({1-[2,4-Bis(trifluoromethyl)benzyl]-1H-indazol-5-yl}methylidene)-3-(2-oxotetrahydrofuran-3-yl)-1,3-thiazolidine-2,4-dione] had an EC50 of 50 nM.

These data come from US8796256B2 (Janssen Pharmaceutica NV, priority 2010, dated 2014).
